Values after ≈ are worked out from the molar mass of the structure shown. “Also recorded” adds a separate entry of the source. Marks after values point to notes of the source that are not given here.
Tests used:
Caco-2 cells = experiment: Recovery of test article in the Caco-2 efflux assay; type: in vitro ADME; details: 1 and 10 μM, in the presence of cells
Protocol: Non-specific binding of phenylacetic acid to the transwell assay plate in the absence of cells was not conducted. However, the recovery of the test article (1 and 10 μM) was determined in the Caco-2 efflux assay, in the presence of cells, and was acceptable.

BSEP [1] = target: T1, BSEP (Homo sapiens, UniProt O95342); experiment: in vitro
[2] = Solubility in stock solvent and assay buffers
BSEP [3] = target: T1, BSEP; experiment: Inhibition of 3H-taurocholic acid uptake by BSEP membrane vesicles (inhibitor assessment); details: for inhibitor of BSEP (conclusion in words): criterion >25% concentration-dependent inhibition of probe substrate uptake; for ATP-Dependent Uptake Activity of 3H-taurocholic acid / Signal-to-Noise Ratio / Uptake Activity of 3H-taurocholic acid, Mg-AMP / Uptake Activity of 3H-taurocholic acid, Mg-ATP: 3H-taurocholic acid 1 μM
BSEP [4] = target: T1, BSEP; experiment: ATP-dependent uptake of test article by BSEP-transfected Sf9 membrane vesicles (substrate assessment); details: for substrate of BSEP (conclusion in words): criteria ≥2-fold ATP-dependent uptake and >50% inhibition by selective inhibitor
[5] = test article 1 μM + cyclosporine 20 μM
[6] = test article 10 μM + cyclosporine 20 μM

T1 sequence (O95342 whole entry): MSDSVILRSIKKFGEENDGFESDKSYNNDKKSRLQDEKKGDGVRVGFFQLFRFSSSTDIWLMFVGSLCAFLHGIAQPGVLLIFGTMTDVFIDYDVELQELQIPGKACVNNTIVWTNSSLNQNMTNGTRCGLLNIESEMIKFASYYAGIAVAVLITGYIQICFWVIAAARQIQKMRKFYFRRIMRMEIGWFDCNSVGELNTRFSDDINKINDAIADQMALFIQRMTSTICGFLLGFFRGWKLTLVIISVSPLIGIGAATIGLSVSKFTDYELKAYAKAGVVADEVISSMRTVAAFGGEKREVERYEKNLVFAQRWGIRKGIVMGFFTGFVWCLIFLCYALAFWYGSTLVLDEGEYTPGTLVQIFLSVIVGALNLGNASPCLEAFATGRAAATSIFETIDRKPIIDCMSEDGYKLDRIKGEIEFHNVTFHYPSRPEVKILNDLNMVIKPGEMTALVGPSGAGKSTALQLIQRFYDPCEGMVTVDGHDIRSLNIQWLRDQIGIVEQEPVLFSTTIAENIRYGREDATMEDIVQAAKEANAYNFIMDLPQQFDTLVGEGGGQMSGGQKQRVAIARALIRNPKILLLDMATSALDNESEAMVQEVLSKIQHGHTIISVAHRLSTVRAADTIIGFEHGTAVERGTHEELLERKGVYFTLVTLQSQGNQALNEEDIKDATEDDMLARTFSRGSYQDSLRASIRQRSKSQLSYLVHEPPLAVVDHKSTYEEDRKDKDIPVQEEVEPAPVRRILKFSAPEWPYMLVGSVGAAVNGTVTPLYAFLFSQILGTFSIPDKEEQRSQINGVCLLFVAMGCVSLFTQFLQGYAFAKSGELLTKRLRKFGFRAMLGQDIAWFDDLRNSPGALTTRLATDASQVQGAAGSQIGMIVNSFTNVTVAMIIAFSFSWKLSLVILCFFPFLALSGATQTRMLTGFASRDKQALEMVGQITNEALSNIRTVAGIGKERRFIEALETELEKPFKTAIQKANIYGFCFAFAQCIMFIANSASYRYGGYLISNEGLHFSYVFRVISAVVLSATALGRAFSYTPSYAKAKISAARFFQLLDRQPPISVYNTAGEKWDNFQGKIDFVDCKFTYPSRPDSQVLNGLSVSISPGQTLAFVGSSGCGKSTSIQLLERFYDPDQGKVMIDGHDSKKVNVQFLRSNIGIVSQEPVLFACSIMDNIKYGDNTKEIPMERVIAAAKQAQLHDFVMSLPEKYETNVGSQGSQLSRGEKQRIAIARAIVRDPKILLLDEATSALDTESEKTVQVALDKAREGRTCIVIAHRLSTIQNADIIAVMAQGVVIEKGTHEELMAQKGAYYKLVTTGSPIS

O=C(O)Cc1ccccc1 [Phenylacetic acid]
recovery of the test article in the Caco-2 efflux assay (Caco-2 cells): acceptable | activity at 30 min, 750 μM (BSEP [1]): 99.6% | activity at 30 min, 7500 μM (BSEP [1]): 0% | potency estimated from few doses at 30 min (BSEP [1]): < 7.5 mM | solubility ([2]; aqueous buffer, kinetic from dmso stock): 7.5 mM (≈ 1.02 mg/mL) | solubility ([2]; methanol, organic solvent or mixture): 1500 mM (≈ 204 mg/mL) | inhibitor of BSEP (conclusion in words) (BSEP [3]): strongly inhibited; also recorded: identified as an inhibitor of BSEP; also recorded: inhibited BSEP | inhibitor of BSEP (conclusion in words) (BSEP [3]; listed as phenylacetic acid): inhibit BSEP | ATP-Dependent Uptake Activity of 3H-taurocholic acid (BSEP [3]; inhibitor 750 μM): 4.68 pmol/minute/mg protein | Signal-to-Noise Ratio (BSEP [3]; inhibitor 750 μM): 17.2 | Uptake Activity of 3H-taurocholic acid, Mg-AMP (BSEP [3]; inhibitor 750 μM): 0.288 pmol/minute/mg protein | Uptake Activity of 3H-taurocholic acid, Mg-ATP (BSEP [3]; inhibitor 750 μM): 4.96 pmol/minute/mg protein | ATP-Dependent Uptake Activity of 3H-taurocholic acid (BSEP [3]; inhibitor 7500 μM): −0.136 pmol/minute/mg protein | Signal-to-Noise Ratio (BSEP [3]; inhibitor 7500 μM): 0.731 | Uptake Activity of 3H-taurocholic acid, Mg-AMP (BSEP [3]; inhibitor 7500 μM): 0.506 pmol/minute/mg protein | Uptake Activity of 3H-taurocholic acid, Mg-ATP (BSEP [3]; inhibitor 7500 μM): 0.370 pmol/minute/mg protein | ATP-Dependent Uptake Activity of test article (BSEP [4]; test article 1 μM): 24.2 pmol/minute/mg protein | Signal-to-Noise Ratio (BSEP [4]; test article 1 μM): 9.95 | Uptake Activity of test article, Mg-AMP (BSEP [4]; test article 1 μM): 2.71^b pmol/minute/mg protein | Uptake Activity of test article, Mg-ATP (BSEP [4]; test article 1 μM): 26.9 pmol/minute/mg protein | ATP-Dependent Uptake Activity of test article (BSEP [4]; [5]): 18.3 pmol/minute/mg protein | Signal-to-Noise Ratio (BSEP [4]; [5]): 3.41 | Uptake Activity of test article, Mg-AMP (BSEP [4]; [5]): 7.60^c pmol/minute/mg protein | Uptake Activity of test article, Mg-ATP (BSEP [4]; [5]): 25.9 pmol/minute/mg protein | ATP-Dependent Uptake Activity of test article (BSEP [4]; test article 10 μM): 814 pmol/minute/mg protein | Signal-to-Noise Ratio (BSEP [4]; test article 10 μM): 12.6 | Uptake Activity of test article, Mg-AMP (BSEP [4]; test article 10 μM): 70.3 pmol/minute/mg protein | Uptake Activity of test article, Mg-ATP (BSEP [4]; test article 10 μM): 884 pmol/minute/mg protein | ATP-Dependent Uptake Activity of test article (BSEP [4]; [6]): 772 pmol/minute/mg protein | Signal-to-Noise Ratio (BSEP [4]; [6]): 10.1 | Uptake Activity of test article, Mg-AMP (BSEP [4]; [6]): 84.7 pmol/minute/mg protein | Uptake Activity of test article, Mg-ATP (BSEP [4]; [6]): 857 pmol/minute/mg protein | ATP-dependent BSEP uptake activity relative to AMP uptake (BSEP [4]; test article 1 and 10 μM): > 2 fold | substrate of BSEP (conclusion in words) (BSEP [4]; test article 1 and 10 μM): not identified as a substrate | substrate of BSEP (conclusion in words) (BSEP [4]; test article 1 and 10 μM, listed as phenylacetic acid): not a substrate; also recorded: unlikely that phenylacetic acid is a substrate | inhibition of test article uptake by cyclosporine A (BSEP [4]; test article 1 and 10 μM, cyclosporine A 20 μM): not inhibited by cyclosporine A

Reference: US12138272B2, “Methods and compositions for treating amyotrophic lateral sclerosis” (Amylyx Pharmaceuticals, Inc., priority 2022, dated 2024)
